PMC7595621, “Quorum sensing N-Acyl homoserine lactones are a new class of anti-schistosomal” (PLoS Neglected Tropical Diseases, 2020)
Values after ≈ are worked out from the molar mass of the structure shown. Read-outs that look alike come from different tables or passages of the source.

Experiments:
[1] = tested on: juvenile S. mansoni worms; experiment: Screening of juvenile S. mansoni blood flukes (3-week worms), motility scoring; assay type: cell-based, Schistosoma mansoni; settings: for Selectivity index, juvenile worm: HepG2 CC50 / juvenile worm EC50; for EC50: Schistosoma mansoni, 3-week worms, motility scores, read-out: JUVENILE WORM EC50
Experimental: (§1) Juvenile S. mansoni parasites were recovered via hepatic portal vein perfusion from TO outbred mice (HsdOla:TO, Tuck-Ordinary, Envigo, UK) that were infected percutaneously three weeks earlier with 4000 cercariae. Preparation and centrifugation of juvenile worms have been described previously. […] After motility quantification, 2 μg/mL of PI was added to each well and the plate returned to 37°C, 5% CO2 for 15 minutes. Each well was subsequently imaged on the Roboworm platform using brightfield and fluorescent microscopy (excitation wavelength = 580 nm; emission wavelength = 604 nm). The number of PI positive vs PI negative juvenile worms were cross-checked with the motility scores obtained by our scoring matrix, and the data reported as percentage of PI positive across all parasites within the well. EC50 values were calculated from the motility scores obtained from the dose response titration (as detailed above) and dose response curves were obtained by non-linear regression, after log transformation of concentrations and data normalization using GraphPad Prism 7.02.
Fig 4 Three week juvenile worms are immobilised by N-Acyl homoserine lactones. Three-week old juvenile S. mansoni worms (n = 13–33 per well) were co-cultured with compounds (1) and (3) at concentrations spanning 15 μM—0.23 μM for 72 hrs at 37°C in a humidified atmosphere containing 5% CO2. Parasite motility was scored between 0–4 (0 = no movement/dead, 4 = full movement/healthy). […] A) Effect of compound (1) on juvenile worm motility. (B) Effect of compound (3) on juvenile worm motility. p values are indicated as follows: * <0.05, ** <0.01, *** <0.001.

[2] = tested on: adult S. mansoni worm pairs; experiment: Screening of adult S. mansoni blood flukes (7-week worms), WHO-TDR motility scoring; assay type: cell-based, Schistosoma mansoni; settings: for Selectivity index, adult worm female: HepG2 CC50 / adult female EC50; for Selectivity index, adult worm male: HepG2 CC50 / adult male EC50; for EC50: Schistosoma mansoni
Experimental: (§2) Adult S. mansoni parasites were recovered by hepatic portal vein perfusion from TO outbred mice (HsdOla:TO, Tuck-Ordinary, Envigo, UK) that were percutaneously infected seven weeks earlier with 180 cercariae. Three adult worm pairs per well, in duplicate, were transferred into 48 well plates (Fisher Scientific, Loughborough, UK) and cultured at 37 °C in an atmosphere containing 5% CO2 in DMEM (Gibco, Paisley, UK) containing 10% v/v HEPES, 10% v/v Foetal Bovine Serum (FBS), 0.7% v/v 200 mM L-Glutamine and 1X v/v penicillin-streptomycin. Worms were dosed with test compounds at 20 μM, 10 μM, 5 μM, 2.5 μM, 1.25 μM and 0.625 μM (in 0.2% DMSO) for 72 hr. Adult worms were scored manually at 72 hr using the WHO-TDR metric scoring system as described previously. Dose response curves and EC50 values were obtained by non-linear regression, after log transformation of concentrations and data normalization using GraphPad Prism 7.02. At 72 hr, the medium from each well was also collected, centrifuged at 350 x g for 2 min. Afterwards, the supernatant was removed, and the remaining egg pellet re-suspended in 10% v/v formalin. Eggs that were oval and contained a fully formed lateral spine were subsequently counted.
(§3) Fig 3 Adult schistosome motility and egg production are differentially affected by the nine N-acyl homoserine lactones. […] Parasite motility was evaluated for each sex and scored using the WHO-TDR scoring system (0 = Dead parasite, 4 = Normal/Healthy movement). B) Culture media were collected from some adult co-cultures at 72 hrs and eggs present in the media were counted. p values are indicated as follows: * <0.05, ** <0.01, *** <0.001.
Initially, these screens were conducted at 20 μM; any compounds that scored a 1 or 0 for motility at this primary concentration were further titrated until no further effect was observed. […] Similar to the schistosomula assays, the differences observed in adult parasite motility when treated with the (R)- and (S)- enantiomers of Compound 1 were striking. […] Estimated EC50s for male and female parasites for these two enantiomers were determined (Table 2), with Compound 5 ((R)- enantiomer) having greater activity than Compound 6 ((S)- enantiomer).

E. coli ATCC 25922 = experiment: Broth microdilution MIC and IC50 determination, E. coli; assay type: cell-based; settings: Escherichia coli; for MIC: ATCC25922, 24 h, 24 hr
Experimental: S. aureus ATCC 29213 and E. coli ATCC 25922 were cultured in Luria-Bertani (LB) medium at 37°C with aeration at 200 rpm for 24 hr, with all procedures performed in a biosafety level 2 (BSL2) cabinet. Stationary phase cultures were then used for minimum inhibitory concentration (MIC) determination using the broth microdilution method, in fresh LB medium, in a 96-well plate. All compounds were tested in triplicate using an initial bacterial concentration of 5.0 × 10^5 colony forming units (CFU)/mL at a final concentration of 125 mg/L (5% and 2.5% v/v methanol). Compounds with no visible growth at 125 mg/L were further evaluated with progressing dilutions. […] Dilutions were repeated in three independent experiments where the optical density (OD600) was measured in a Hidex plate spectrophotometer and absorbance data used for the calculation of an IC50 value. The IC50 value was obtained from a dose response titration (125–0.09 mg/L). Dose response curves were obtained by non-linear regression, after log transformation of concentrations and data normalization using GraphPad Prism 7.02.
As Compound 1 was structurally similar to N-acyl homoserine lactones, a compound class involved in bacterial quorum sensing, we decided to assess its antimicrobial activity and determine if enantiomer separation or lactone ring substitution would change this activity.

[3] = tested on: adult S. mansoni worm pairs (egg production); experiment: In vitro egg production of adult S. mansoni worm pairs; assay type: cell-based, Schistosoma mansoni; settings: 72 hr, compared to DMSO
Experimental: as §2, §3
As morbidity associated with schistosomiasis is caused by egg-induced granuloma formation in tissues and the subsequent development of fibrotic lesions around these granulomas, compound-mediated modulation of in vitro egg production (as a surrogate for the in vivo pathology initiator) was next assessed (Fig 3B). […] In comparison to the negative control DMSO, in which egg counts ranged from 300–594 (Average—408), all N-Acyl homoserine lactones affected fecundity.

[4] = tested on: juvenile S. mansoni worms; experiment: Propidium iodide (PI) staining of juvenile S. mansoni worms; assay type: cell-based, Schistosoma mansoni; settings: 72 hrs
Experimental: as §1
Three week juvenile schistosomes, incubated with compounds (1), (3) or controls for 72 hrs, were subsequently cultured with PI at a final concentration of 2 μg/mL for 15 minutes at 37 °C in an environment containing 5% CO2. PI positive parasites (dead) were counted and the percent live vs dead in each well is indicated. A) Quantification of compound (1) mediated juvenile death. B) Quantification of compound (3) mediated juvenile death.

[5] = Cell cytotoxicity assay (MTT); assay type: cell-based, human; settings: human, HepG2 cells, MTT, 95% confidence interval, called EC50
Experimental: The cytotoxicity of each compound was assessed on human HepG2 cells as described previously [17]. Briefly, 2 x 10^4 cells/well were seeded in black walled 96-well microtiter plates (Fisher Scientific, Loughborough, UK) and incubated for 24 hr at 37°C in a humidified atmosphere containing 5% CO2. […] Following a further incubation for 24 hr, the MTT assay was performed as previously described [17, 27]. Dose response curves were obtained by non-linear regression, after log transformation of concentrations and data normalization using GraphPad Prism 7.02.

[6] = 7-week worms, 72 hr, motility, 95% confidence interval, read-out: ADULT WORM EC50 Female
[7] = 7-week worms, 72 hr, motility, 95% confidence interval, read-out: ADULT WORM EC50 Male

Compound | significant effect on juvenile worm motility down to ([1]; 72 hr) | Selectivity index, juvenile worm [1] | EC50 ([1]; 72 hr) | Selectivity index, adult worm female [2] | Selectivity index, adult worm male [2] | EC50 [2, 6] | EC50 [2, 7] | MIC (E. coli ATCC 25922; no visible growth) | MIC (E. coli ATCC 25922; value in square brackets) | egg laying significantly reduced down to concentration [3] | Percent P.I positive parasites ([4]; 3.75 μM) | Percent P.I positive parasites ([4]; 7.5 μM) | Percent P.I positive parasites ([4]; 15 μM) | CC50 at 24 h [5] | complete immobility of juvenile worms observed down to ([1]; 72 hr) | significant reduction in adult worm motility observed down to ([2]; 72 hr) | EC50 ([2]; sex not stated (abstract), read-out: adult worms EC50) | IC50 (E. coli ATCC 25922; ATCC25922, Table 3, OD600, three independent experiments, 95% confidence interval in parentheses) | effect on egg production (fecundity) [3] | 100% of the parasites PI positive down to concentration [4]
O=C(CBr)NC1CCOC1=O (stereo not drawn) [Compound 1, 2-bromo-N-(2-oxotetrahydrofuran-3-yl)acetamide] | 7.5 µM | 10.1 | 4.3 µM | 5.2 | 5.3 | 8.3 µM | 8.2 µM | 125 µg/mL | 563 µM | 10 µM | 13.3% | 100% | 100% | 43.5 µM |  |  |  |  |  | 
O=C(CBr)NC1CCSC1=O (stereo not drawn) [Compound 3, 2-bromo-N-(2-oxotetrahydrothiophen-3-yl)acetamide] |  | 37.4 | 0.5 µM | 4.8 | 4.5 | 3.9 µM | 4.2 µM | 62.5 µg/mL | 262 µM | 2.5 µM |  |  |  | 18.7 µM | 0.94 µM | 5 µM | 4.8 µM | 52.7 µg/mL (≈ 221 µM) | still affected at 1.25 μM, this was not statistically significant | 0.94 µM
